Data as given in ChEMBL document CHEMBL3108691, “Structural investigation of cycloheptathiophene-3-carboxamide derivatives targeting influenza virus polymerase assembly” (J Med Chem, 2013).

Test system: Influenza A virus
Assay type: functional, organism-based, Influenza A virus (A/Parma/24/2009(H1N1))
Details: MDCK, 48 h

NC(=O)c1ncn([C@@H]2O[C@H](CO)[C@@H](O)[C@H]2O)n1 [RIBAVIRIN]
EC50: 17 µM
